Results reported in the CheMixHub drug solubility set.

Assay: xn = mol fraction of the nth substance listed, in the solute-free solvent

Nc1ncn(C2OC(CO)C(O)C2O)c(=O)n1 (stereo not drawn) + O + CCCO
solubility (g/100 g solution)
Details	278.15 K	283.15 K	288.15 K	293.15 K	298.15 K	303.15 K	308.15 K	313.15 K	318.15 K
x2 = 0.4546	0.0722	0.0869	0.104	0.124	0.149	0.177	0.208	0.241	0.279
x2 = 0.6897	0.165	0.201	0.249	0.302	0.359	0.424	0.49	0.562	0.635
x2 = 0.8334	0.298	0.368	0.448	0.54	0.637	0.744	0.852	0.965	1.07
x2 = 0.9303	0.488	0.59	0.72	0.861	1.01	1.17	1.33	1.49	1.66

Nc1ncn(C2OC(CO)C(O)C2O)c(=O)n1 (stereo not drawn) + O + CCO
solubility (g/100 g solution)
Details	278.15 K	283.15 K	288.15 K	293.15 K	298.15 K	303.15 K	308.15 K	313.15 K	318.15 K
x2 = 0.3899	0.0889	0.101	0.115	0.133	0.153	0.177	0.206	0.238	0.275
x2 = 0.6302	0.186	0.217	0.255	0.298	0.349	0.406	0.469	0.538	0.618
x2 = 0.7932	0.302	0.369	0.443	0.524	0.614	0.709	0.813	0.924	1.05
x2 = 0.9109	0.498	0.588	0.704	0.836	0.976	1.12	1.28	1.46	1.65

Nc1ncn(C2OC(CO)C(O)C2O)c(=O)n1 (stereo not drawn) + O + CO
solubility (g/100 g solution)
Details	278.15 K	283.15 K	288.15 K	293.15 K	298.15 K	303.15 K	308.15 K	313.15 K	318.15 K
x2 = 0.3077	0.0966	0.113	0.129	0.148	0.169	0.194	0.228	0.273	0.324
x2 = 0.5424	0.198	0.229	0.265	0.307	0.359	0.419	0.491	0.575	0.673
x2 = 0.7273	0.335	0.397	0.463	0.542	0.632	0.742	0.869	1	1.14
x2 = 0.8767	0.521	0.634	0.758	0.888	1.02	1.17	1.34	1.52	1.71

Nc1cc(-c2ccncc2)c[nH]c1=O + OCCO + O
solubility (g/100 g solution)
Details	278.15 K	283.15 K	288.15 K	293.15 K	298.15 K	303.15 K	308.15 K	313.15 K	318.15 K	323.15 K
x2 = 0.03125	0.000969	0.00114	0.00136	0.0016	0.00188	0.00216	0.00248	0.00283	0.00323	0.00367
x2 = 0.06767	0.00136	0.0016	0.00191	0.00224	0.00262	0.00301	0.00345	0.00393	0.00447	0.00508
x2 = 0.1107	0.00187	0.00221	0.00263	0.0031	0.00358	0.00411	0.00469	0.00542	0.00618	0.00703
x2 = 0.1622	0.00264	0.00312	0.00368	0.00432	0.00505	0.00577	0.00658	0.00746	0.00845	0.00955
x2 = 0.225	0.0034	0.00407	0.00476	0.00562	0.00649	0.00751	0.00852	0.00976	0.0111	0.0126
x2 = 0.3034	0.00444	0.00524	0.00616	0.00725	0.00846	0.00962	0.0109	0.0124	0.014	0.0158
x2 = 0.4038	0.00528	0.00637	0.00751	0.00882	0.0103	0.0117	0.0131	0.0148	0.0168	0.0189
x2 = 0.5373	0.00588	0.00697	0.00817	0.00966	0.0113	0.0128	0.0146	0.0165	0.0186	0.021
x2 = 0.7232	0.00648	0.00764	0.00919	0.0108	0.0123	0.014	0.016	0.0178	0.0199	0.0224

Nc1ncc(Br)nc1Br + OCCO + O
solubility (g/100 g solution)
Details	278.15 K	283.15 K	288.15 K	293.15 K	298.15 K	303.15 K	308.15 K	313.15 K	318.15 K	323.15 K
x2 = 0.03125	0.00637	0.0078	0.00922	0.0109	0.0127	0.0144	0.0164	0.0186	0.0208	0.0231
x2 = 0.06767	0.0106	0.0129	0.0152	0.018	0.0209	0.0235	0.0267	0.0302	0.0336	0.0373
x2 = 0.1107	0.0164	0.02	0.0235	0.0276	0.032	0.036	0.0408	0.0459	0.0511	0.0566
x2 = 0.1622	0.0238	0.0288	0.0338	0.0398	0.046	0.0518	0.0585	0.0657	0.0731	0.0809
x2 = 0.225	0.0307	0.0375	0.0446	0.0526	0.0606	0.0684	0.0774	0.0866	0.0965	0.108
x2 = 0.3034	0.0394	0.0471	0.0562	0.0663	0.0766	0.0874	0.0983	0.111	0.124	0.138
x2 = 0.4038	0.0467	0.0558	0.0667	0.0788	0.0911	0.104	0.118	0.133	0.148	0.164
x2 = 0.5373	0.0508	0.0614	0.0739	0.0875	0.103	0.116	0.132	0.148	0.165	0.184
x2 = 0.7232	0.0528	0.0647	0.077	0.0912	0.106	0.12	0.137	0.154	0.173	0.194

c1ccc2c(c1)CCc1ccccc1N2 + OCCO + O
solubility (g/100 g solution)
Details	283.15 K	288.15 K	293.15 K	298.15 K	303.15 K	308.15 K	313.15 K	318.15 K	323.15 K	328.15 K
x2 = 0.03125	0.0117	0.0166	0.0228	0.032	0.0373	0.0524	0.0651	0.088	0.117	0.153
x2 = 0.06775	0.0425	0.0584	0.0728	0.0999	0.124	0.165	0.207	0.265	0.333	0.406
x2 = 0.1107	0.0709	0.0954	0.123	0.162	0.202	0.258	0.32	0.397	0.49	0.598
x2 = 0.1615	0.0799	0.106	0.135	0.174	0.214	0.272	0.331	0.404	0.491	0.593
x2 = 0.2258	0.0897	0.118	0.144	0.179	0.221	0.265	0.32	0.381	0.455	0.558
x2 = 0.3035	0.0971	0.123	0.148	0.178	0.215	0.256	0.304	0.359	0.421	0.515
x2 = 0.4027	0.107	0.131	0.154	0.184	0.223	0.261	0.313	0.359	0.402	0.47
x2 = 0.5389	0.114	0.14	0.166	0.197	0.232	0.272	0.308	0.353	0.401	0.458
x2 = 0.7239	0.117	0.139	0.167	0.197	0.231	0.263	0.296	0.329	0.366	0.411
